According to patent US9790210B2, “N-(monocyclic aryl),N'-pyrazolyl-urea, thiourea, guanidine and cyanoguanidine compounds as TrkA kinase inhibitors” (Array BioPharma Inc., priority 2012, dated 2017):

Key:
Assay in all cases: KinaseProfiler
Format in all cases: biochemical
Conditions in all cases: 10 μM, ATP near Km
[1] = biological target: T1, PKAC-alpha (Homo sapiens, UniProt P17612)
T1 construct: purchased Millipore, Inc. (KinaseProfiler service)
Protocol: (§1) A representative compound (Example 15) of the invention was tested for off-target kinase activity at a concentration of 10 μM by Millipore, Inc. in their KinaseProfiler™ service against all the kinases available in their full kinase panel. The compound was run in duplicate at a concentration of ATP near the Km for each individual kinase according to Millipore's specifications. The results are shown in Table B. Data are reported as percent of control (POC) and are the average of the two replicates.

[2] = biological target: T2, TAK1 (Homo sapiens, UniProt O43318)
T2 construct: purchased Millipore, Inc. (KinaseProfiler service)
Protocol: as §1

[3] = biological target: T3, AKT2 (Homo sapiens, UniProt P31751)
T3 construct: purchased Millipore (KinaseProfiler service)
Protocol: as §1

[4] = biological target: T4, Haspin (Homo sapiens, UniProt Q8TF76)
T4 construct: purchased Millipore, Inc. (KinaseProfiler service)
Protocol: as §1

[5] = biological target: T5, BrSK2 (Homo sapiens, UniProt Q8IWQ3)
T5 construct: purchased Millipore (KinaseProfiler service)
T5 sequence (Q8IWQ3 whole entry): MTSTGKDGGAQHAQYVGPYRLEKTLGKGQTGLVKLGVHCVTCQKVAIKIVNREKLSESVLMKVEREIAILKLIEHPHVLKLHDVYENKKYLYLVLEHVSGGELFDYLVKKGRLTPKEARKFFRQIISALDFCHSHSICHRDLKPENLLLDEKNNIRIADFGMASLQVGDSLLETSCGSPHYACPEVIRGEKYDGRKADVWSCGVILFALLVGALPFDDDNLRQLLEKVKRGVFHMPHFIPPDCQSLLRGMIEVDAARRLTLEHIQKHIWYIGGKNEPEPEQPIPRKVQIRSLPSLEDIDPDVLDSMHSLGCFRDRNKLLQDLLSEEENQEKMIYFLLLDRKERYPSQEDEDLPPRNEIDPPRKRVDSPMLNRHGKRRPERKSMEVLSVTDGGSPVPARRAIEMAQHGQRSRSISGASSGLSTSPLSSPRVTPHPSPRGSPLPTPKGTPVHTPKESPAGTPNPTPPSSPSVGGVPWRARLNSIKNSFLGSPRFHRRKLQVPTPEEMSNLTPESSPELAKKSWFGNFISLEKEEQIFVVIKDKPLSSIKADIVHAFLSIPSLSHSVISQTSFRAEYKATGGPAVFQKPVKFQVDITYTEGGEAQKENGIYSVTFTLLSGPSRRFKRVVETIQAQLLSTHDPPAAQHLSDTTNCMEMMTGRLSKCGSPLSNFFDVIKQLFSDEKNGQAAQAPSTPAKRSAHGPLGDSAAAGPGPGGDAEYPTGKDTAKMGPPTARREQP
Protocol: as §1

[6] = biological target: T6, BrSK1 (Homo sapiens, UniProt Q8TDC3)
T6 construct: purchased Millipore (KinaseProfiler service)
Protocol: as §1

[7] = biological target: T7, DAPK3 (Homo sapiens, UniProt O43293)
T7 construct: purchased Millipore, Inc. (KinaseProfiler service)
T7 sequence (O43293 whole entry): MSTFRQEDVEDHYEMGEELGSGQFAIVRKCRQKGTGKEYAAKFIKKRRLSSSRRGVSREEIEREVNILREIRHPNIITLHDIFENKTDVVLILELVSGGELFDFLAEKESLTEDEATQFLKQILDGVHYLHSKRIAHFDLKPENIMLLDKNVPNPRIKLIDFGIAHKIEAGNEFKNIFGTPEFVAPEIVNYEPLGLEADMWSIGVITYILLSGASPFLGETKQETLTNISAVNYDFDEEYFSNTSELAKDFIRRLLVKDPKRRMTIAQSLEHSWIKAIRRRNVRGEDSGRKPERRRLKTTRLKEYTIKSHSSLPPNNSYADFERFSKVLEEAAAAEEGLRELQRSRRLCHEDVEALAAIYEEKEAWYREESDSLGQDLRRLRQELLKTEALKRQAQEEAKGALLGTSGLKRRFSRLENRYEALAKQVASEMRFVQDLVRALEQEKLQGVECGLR
Protocol: as §1

[8] = biological target: T8, IRAK4 (Homo sapiens, UniProt Q9NWZ3)
T8 construct: purchased Millipore, Inc. (KinaseProfiler service)
Protocol: as §1

[9] = biological target: T9, Pim-1 (Homo sapiens, UniProt P11309)
T9 construct: purchased Millipore, Inc. (KinaseProfiler service)
Protocol: as §1

[10] = biological target: T10, p38delta (Homo sapiens, UniProt O15264)
T10 construct: purchased Millipore, Inc. (KinaseProfiler service)
Protocol: as §1

[11] = biological target: T11, MKK6 (Homo sapiens, UniProt P52564)
T11 construct: purchased Millipore, Inc. (KinaseProfiler service)
T11 sequence (P52564 whole entry): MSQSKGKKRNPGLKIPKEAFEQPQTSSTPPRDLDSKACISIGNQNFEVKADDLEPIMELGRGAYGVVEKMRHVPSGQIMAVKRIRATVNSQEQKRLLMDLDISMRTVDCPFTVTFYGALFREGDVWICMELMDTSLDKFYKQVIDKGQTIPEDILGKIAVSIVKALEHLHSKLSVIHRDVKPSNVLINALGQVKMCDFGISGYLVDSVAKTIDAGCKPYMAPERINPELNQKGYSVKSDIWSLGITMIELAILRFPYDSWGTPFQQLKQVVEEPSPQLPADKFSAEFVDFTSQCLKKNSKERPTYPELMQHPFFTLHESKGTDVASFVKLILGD
Protocol: as §1

[12] = system: CK1_y
Protocol: as §1

[13] = biological target: T12, Flt3 (Homo sapiens, UniProt P36888)
T12 construct: purchased Millipore, Inc. (KinaseProfiler service)
Protocol: as §1

[14] = biological target: T13, GSK3beta (Homo sapiens, UniProt P49841)
T13 construct: purchased Millipore, Inc. (KinaseProfiler service)
Protocol: as §1

[15] = biological target: T14, ARKS (Homo sapiens, UniProt O60285)
T14 construct: purchased Millipore (KinaseProfiler service)
T14 sequence (O60285 whole entry): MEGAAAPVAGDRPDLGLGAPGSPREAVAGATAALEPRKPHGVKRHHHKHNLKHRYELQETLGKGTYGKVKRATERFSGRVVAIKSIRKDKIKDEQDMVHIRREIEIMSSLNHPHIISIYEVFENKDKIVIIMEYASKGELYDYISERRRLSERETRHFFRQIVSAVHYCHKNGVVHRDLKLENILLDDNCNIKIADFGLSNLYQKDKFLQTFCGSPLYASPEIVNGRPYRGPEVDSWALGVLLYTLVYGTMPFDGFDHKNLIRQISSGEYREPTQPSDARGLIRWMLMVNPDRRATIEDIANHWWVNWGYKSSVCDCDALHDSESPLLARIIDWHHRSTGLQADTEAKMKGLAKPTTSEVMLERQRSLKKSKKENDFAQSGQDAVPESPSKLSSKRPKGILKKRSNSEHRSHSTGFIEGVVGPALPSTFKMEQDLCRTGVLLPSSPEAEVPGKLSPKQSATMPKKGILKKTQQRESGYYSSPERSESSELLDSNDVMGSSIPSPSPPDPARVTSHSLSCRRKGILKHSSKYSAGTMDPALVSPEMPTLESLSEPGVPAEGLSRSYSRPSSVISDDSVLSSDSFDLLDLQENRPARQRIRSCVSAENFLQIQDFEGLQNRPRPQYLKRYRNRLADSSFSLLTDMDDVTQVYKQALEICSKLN
Protocol: as §1

[16] = biological target: T15, LKB1 (Homo sapiens, UniProt Q15831)
T15 construct: purchased Millipore, Inc. (KinaseProfiler service)
Protocol: as §1

[17] = biological target: T16, CK1gamma1 (Homo sapiens, UniProt Q9HCP0)
T16 construct: purchased Millipore, Inc. (KinaseProfiler service)
Protocol: as §1

[18] = biological target: T17, PKD2 (Homo sapiens, UniProt Q9BZL6)
T17 construct: purchased Millipore, Inc. (KinaseProfiler service)
Protocol: as §1

[19] = biological target: T18, Yes (Homo sapiens, UniProt P07947)
T18 construct: purchased Millipore, Inc. (KinaseProfiler service)
Protocol: as §1

[20] = biological target: T19, NEK2 (Homo sapiens, UniProt P51955)
T19 construct: purchased Millipore, Inc. (KinaseProfiler service)
Protocol: as §1

[21] = biological target: T20, EGFR (Homo sapiens, UniProt P00533)
T20 construct: purchased Millipore, Inc. (KinaseProfiler service)
Protocol: as §1

[22] = biological target: T21, TAO3 (Homo sapiens, UniProt Q9H2K8)
T21 construct: purchased Millipore, Inc. (KinaseProfiler service)
Protocol: as §1

[23] = biological target: T22, CDK7/cyclinH/MAT1 (Homo sapiens, UniProt P50613)
T22 construct: purchased Millipore, Inc. (KinaseProfiler service)
Protocol: as §1

[24] = biological target: T23, MSK2 (Homo sapiens, UniProt O75676)
T23 construct: purchased Millipore, Inc. (KinaseProfiler service)
Protocol: as §1

[25] = biological target: T24, IRR (Homo sapiens, UniProt P14616)
T24 construct: purchased Millipore, Inc. (KinaseProfiler service)
Protocol: as §1

[26] = biological target: T25, ULK2 (Homo sapiens, UniProt Q8IYT8)
T25 construct: purchased Millipore, Inc. (KinaseProfiler service)
Protocol: as §1

[27] = biological target: T26, Met (Homo sapiens, UniProt P08581)
T26 construct: purchased Millipore, Inc. (KinaseProfiler service)
Protocol: as §1

[28] = biological target: T27, AMPK(A1/B1/G1) (Homo sapiens, UniProt Q13131)
T27 construct: purchased Millipore (KinaseProfiler service)
T27 sequence (Q13131 whole entry): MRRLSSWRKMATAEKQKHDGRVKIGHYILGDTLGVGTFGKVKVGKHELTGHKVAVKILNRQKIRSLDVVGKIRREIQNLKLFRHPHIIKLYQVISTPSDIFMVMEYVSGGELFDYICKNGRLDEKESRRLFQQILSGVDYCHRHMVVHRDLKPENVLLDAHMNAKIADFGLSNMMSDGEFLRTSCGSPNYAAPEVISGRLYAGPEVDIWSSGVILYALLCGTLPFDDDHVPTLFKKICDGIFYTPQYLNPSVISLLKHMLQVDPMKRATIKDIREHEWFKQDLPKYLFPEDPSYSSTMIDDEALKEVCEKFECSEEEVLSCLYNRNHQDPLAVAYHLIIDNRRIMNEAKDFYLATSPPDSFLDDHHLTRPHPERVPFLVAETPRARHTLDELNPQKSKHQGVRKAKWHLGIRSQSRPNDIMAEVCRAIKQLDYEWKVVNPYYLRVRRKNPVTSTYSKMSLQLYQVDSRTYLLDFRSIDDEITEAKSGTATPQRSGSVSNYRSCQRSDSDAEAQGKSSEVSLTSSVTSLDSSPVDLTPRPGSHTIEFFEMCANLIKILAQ
T27 sequence (Q9Y478 whole entry partner): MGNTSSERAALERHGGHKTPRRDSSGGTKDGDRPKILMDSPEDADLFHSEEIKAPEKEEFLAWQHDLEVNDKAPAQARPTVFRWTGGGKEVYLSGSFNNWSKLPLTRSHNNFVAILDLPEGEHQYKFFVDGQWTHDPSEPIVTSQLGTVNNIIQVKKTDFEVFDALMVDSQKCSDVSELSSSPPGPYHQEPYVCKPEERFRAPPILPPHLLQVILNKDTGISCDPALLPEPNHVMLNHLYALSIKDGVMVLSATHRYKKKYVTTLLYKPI
T27 sequence (P54619 whole entry partner): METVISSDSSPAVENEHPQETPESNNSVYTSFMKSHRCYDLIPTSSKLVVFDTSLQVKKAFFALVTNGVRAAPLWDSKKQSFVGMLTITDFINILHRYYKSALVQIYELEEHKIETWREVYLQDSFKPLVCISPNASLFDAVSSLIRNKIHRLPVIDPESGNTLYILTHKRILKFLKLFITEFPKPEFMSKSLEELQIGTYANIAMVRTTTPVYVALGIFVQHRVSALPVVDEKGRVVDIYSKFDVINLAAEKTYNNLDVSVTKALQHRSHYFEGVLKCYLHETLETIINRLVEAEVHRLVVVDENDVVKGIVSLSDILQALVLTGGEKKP
Protocol: as §1

[29] = biological target: T28, Mer (Homo sapiens, UniProt Q12866)
T28 construct: purchased Millipore, Inc. (KinaseProfiler service)
Protocol: as §1

[30] = biological target: T29, PDGFRbeta (Homo sapiens, UniProt P09619)
T29 construct: purchased Millipore, Inc. (KinaseProfiler service)
Protocol: as §1

[31] = biological target: T30, CDK5/p35 (Homo sapiens, UniProt Q00535)
T30 construct: purchased Millipore, Inc. (KinaseProfiler service)
Protocol: as §1

[32] = biological target: T31, EphB1 (Homo sapiens, UniProt P54762)
T31 construct: purchased Millipore, Inc. (KinaseProfiler service)
Protocol: as §1

[33] = biological target: T32, p70S6K (Homo sapiens, UniProt P23443)
T32 construct: purchased Millipore, Inc. (KinaseProfiler service)
T32 sequence (P23443 whole entry): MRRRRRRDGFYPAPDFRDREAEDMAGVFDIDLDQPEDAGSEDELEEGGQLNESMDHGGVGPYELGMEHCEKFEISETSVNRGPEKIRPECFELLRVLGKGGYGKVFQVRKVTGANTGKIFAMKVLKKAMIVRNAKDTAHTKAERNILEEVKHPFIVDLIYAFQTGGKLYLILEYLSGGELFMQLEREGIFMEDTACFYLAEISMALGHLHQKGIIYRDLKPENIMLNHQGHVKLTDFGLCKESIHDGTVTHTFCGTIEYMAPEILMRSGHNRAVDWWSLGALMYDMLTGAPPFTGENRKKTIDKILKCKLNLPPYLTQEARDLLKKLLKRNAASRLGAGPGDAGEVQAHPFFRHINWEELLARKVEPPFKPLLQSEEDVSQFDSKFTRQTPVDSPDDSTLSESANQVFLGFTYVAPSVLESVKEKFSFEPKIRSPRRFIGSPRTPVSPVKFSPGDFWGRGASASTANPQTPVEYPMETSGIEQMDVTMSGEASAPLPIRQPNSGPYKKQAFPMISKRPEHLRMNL
Protocol: as §1

[34] = biological target: T33, SGK3 (Homo sapiens, UniProt Q96BR1)
T33 construct: purchased Millipore, Inc. (KinaseProfiler service)
Protocol: as §1

[35] = biological target: T34, MAPKAP-K2 (Homo sapiens, UniProt P49137)
T34 construct: purchased Millipore, Inc. (KinaseProfiler service)
Protocol: as §1

[36] = biological target: T35, EphA5 (Homo sapiens, UniProt P54756)
T35 construct: purchased Millipore, Inc. (KinaseProfiler service)
T35 sequence (P54756 25-1037): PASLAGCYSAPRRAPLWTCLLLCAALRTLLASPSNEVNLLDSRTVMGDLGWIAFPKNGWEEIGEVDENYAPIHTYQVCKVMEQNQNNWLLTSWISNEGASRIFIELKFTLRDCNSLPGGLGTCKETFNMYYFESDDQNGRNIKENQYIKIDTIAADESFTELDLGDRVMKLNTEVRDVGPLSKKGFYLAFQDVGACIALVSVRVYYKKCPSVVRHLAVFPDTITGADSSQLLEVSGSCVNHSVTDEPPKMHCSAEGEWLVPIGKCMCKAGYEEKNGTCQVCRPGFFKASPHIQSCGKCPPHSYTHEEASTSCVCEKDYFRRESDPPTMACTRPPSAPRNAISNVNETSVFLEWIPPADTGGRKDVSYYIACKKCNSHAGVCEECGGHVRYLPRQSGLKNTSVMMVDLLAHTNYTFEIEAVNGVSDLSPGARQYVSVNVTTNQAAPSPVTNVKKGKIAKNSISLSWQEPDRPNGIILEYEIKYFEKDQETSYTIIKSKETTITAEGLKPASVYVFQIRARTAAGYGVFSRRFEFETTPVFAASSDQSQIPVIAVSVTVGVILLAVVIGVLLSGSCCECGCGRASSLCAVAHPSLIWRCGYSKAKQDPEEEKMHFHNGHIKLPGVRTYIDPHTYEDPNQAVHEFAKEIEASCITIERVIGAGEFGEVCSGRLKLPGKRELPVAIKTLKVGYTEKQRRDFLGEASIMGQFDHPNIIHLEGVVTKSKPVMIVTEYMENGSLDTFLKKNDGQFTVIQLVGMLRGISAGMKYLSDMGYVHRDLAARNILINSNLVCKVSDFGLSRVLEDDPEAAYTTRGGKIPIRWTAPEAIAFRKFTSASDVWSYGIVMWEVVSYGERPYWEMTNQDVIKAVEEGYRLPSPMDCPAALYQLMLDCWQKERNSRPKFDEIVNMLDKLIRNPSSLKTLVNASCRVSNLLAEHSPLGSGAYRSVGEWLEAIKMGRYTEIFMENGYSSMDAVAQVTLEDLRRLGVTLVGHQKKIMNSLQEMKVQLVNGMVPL
Protocol: as §1

[37] = biological target: T36, WNK2 (Homo sapiens, UniProt Q9Y3S1)
T36 construct: purchased Millipore, Inc. (KinaseProfiler service)
Protocol: as §1

[38] = biological target: T37, PKCtheta (Homo sapiens, UniProt Q04759)
T37 construct: purchased Millipore, Inc. (KinaseProfiler service)
Protocol: as §1

[39] = biological target: T38, CK2 (Homo sapiens, UniProt P68400)
T38 construct: purchased Millipore, Inc. (KinaseProfiler service)
Protocol: as §1

[40] = biological target: T39, DAPK2 (Homo sapiens, UniProt Q9UIK4)
T39 construct: purchased Millipore, Inc. (KinaseProfiler service)
Protocol: as §1

[41] = biological target: T40, PKCepsilon (Homo sapiens, UniProt Q02156)
T40 construct: purchased Millipore, Inc. (KinaseProfiler service)
Protocol: as §1

Avg POC [1]: 149 POC
Avg POC [2]: 95 POC
Avg POC [3]: 166.5 POC
Avg POC [4]: 121.5 POC
Avg POC [5]: 123 POC
Avg POC [6]: 123.5 POC
Avg POC [7]: 106 POC
Avg POC [8]: 124.5 POC
Avg POC [9]: 108 POC
Avg POC [10]: 100.5 POC
Avg POC [11]: 124.5 POC
Avg POC [13]: 81 POC
Avg POC [14]: 114.5 POC
Avg POC [15]: 97.5 POC
Avg POC [16]: 90.5 POC
Avg POC [17]: 99.5 POC
Avg POC [18]: 98.5 POC
Avg POC [19]: 120.5 POC
Avg POC [20]: 88.5 POC
Avg POC [21]: 103 POC
Avg POC [22]: 95 POC
Avg POC [23]: 106 POC
Avg POC [24]: 147 POC
Avg POC [25]: 99.5 POC
Avg POC [26]: 95 POC
Avg POC [27]: 110.5 POC
Avg POC [28]: 149 POC
Avg POC [29]: 97.5 POC
Avg POC [30]: 134 POC
Avg POC [31]: 110 POC
Avg POC [32]: 130 POC
Avg POC [33]: 130.5 POC
Avg POC [34]: 132 POC
Avg POC [35]: 129.5 POC
Avg POC [36]: 115.5 POC
Avg POC [37]: 122.5 POC
Avg POC [38]: 105 POC
Avg POC [39]: 94.5 POC
Avg POC [40]: 104.5 POC
Avg POC [41]: 97 POC
SMILES: COCCCc1cc(Cl)c(Cl)cc1NC(=O)Nc1c(C)c(-c2cnn(C)c2)nn1-c1ccccc1 [Example 15, 1-(4,5-dichloro-2-(3-methoxypropyl)phenyl)-3-(1′,4-dimethyl-1-phenyl-1H,1′H-[3,4′-bipyrazol]-5-yl)urea]
Avg POC [12]: 96.5 POC
